Results reported in US20230270718A1, “METHODS OF TREATING DIABETIC KIDNEY DISEASE” (Chinook Therapeutics, Inc., priority 2020, published 2023).
Where two headings read alike, the source gives them in different places.

Columns and labels:
DKD patients [1] = conditions: enrichment period, cited from earlier work
DKD patients [2] = assay: SONAR study, six week enrichment period, analyses by concomitant SGLT-2 inhibitor use; type: in vivo, human; set-up: key to UACR Final, Median / UACR Change, Median: UACR values in mg/g; conditions: for B-type Natriuretic Peptide, change: geometric mean; for UACR Change, Mean (SD) / UACR Change, Median / UACR Final, Mean (SD) / UACR Final, Median: enrichment atrasentan
Method: A double-blind, randomized, placebo-controlled trial of DKD patients was conducted at 689 sites in 41 countries. The trial was conducted in two phases, an enrichment period and a double-blind treatment period. For the enrichment period, eligible patients were 18-85 years old with type 2 diabetes, an estimated glomerular filtration rate (eGFR) of 25-75 mL/min per 1.73 m^2 of body surface area, a urine albumin-to-creatinine ratio (UACR) of 300-5000 mg/g, a serum albumin of at least 25 g/L, a brain natriuretic peptide (BNP) concentration (level) of no more than 200 pg/mL, a serum potassium of at least 3 to 5 mmol/L, and systolic blood pressure of 110-180 mm Hg. The patients were required to receive a stable, recommended or maximally tolerated dose of an ACE inhibitor or ARB for at least four weeks prior to beginning the enrichment period. Patients also received a diuretic prior to beginning the enrichment period. Exclusion criteria included: a diagnosis of or previous hospital admission for heart failure, a history of severe peripheral or facial edema, diagnosis of type 1 diabetes, history of pulmonary hypertension, pulmonary fibrosis, or any lung diseases requiring oxygen therapy, and known non-diabetic kidney disease. See Heerspink et al., Lancet 393:1937-1947 (2019).
See Heerspink et al., Diabetes Obes Metab., 20:1829-1835 (2018). 42 responder patients and 9 patients in the non-responder group had used a SGLT-2 inhibitor at the start of enrichment. […] It was concluded that the UACR reduction was consistent in both groups.
Referring to the following Table 1, case-control matched cohort data from the study is shown.
SGLT-2 inhibitors included canagliflozin (N=6), empagliflozin (N=4), dapagliflozin (N=3), and luseogliflozin (N=1).
Change in body weight was used as a surrogate for fluid retention. See, e.g., Hoekman, et al., Clin. J. Am. Soc. Nephrol. 2013; 9(3):490-498. The change in BNP was monitored as an additional surrogate for fluid retention (each 1 kg increase in body weight during the enrichment period was associated with a 7.3% increase in BNP (p-value<0.001)).

DKD patients [3] = conditions: cited from earlier work
[4] = Table 2, case-control matched cohort (N = 14 vs N = 42), enrichment period
[5] = Table 5, combination matched cohort (N = 14 vs N = 42), enrichment period
[6] = Table 6, combination (N = 14) vs all atrasentan alone subjects (N = 5093), enrichment period
[7] = No prior or concomitant SGLT2, N 4768
[8] = Prior and concomitant sGLT2, N 5
[9] = atrasentan group, treatment period
[10] = of 1,325 patients, atrasentan 0.75 mg orally daily
[11] = of 1,325 responders, atrasentan 0.75 mg orally daily, median follow-up 2.2 years

In the case of `CCCCN(CCCC)C(=O)CN1C[C@H](c2ccc3c(c2)OCO3)[C@@H](C(=O)O)[C@@H]1c1ccc(OC)cc1` [Atrasentan, (2R,3R,4S)-4-(1,3-benzodioxol-5-yl)-1-[2-(dibutylamino)-2-oxoethyl]-2-(4-methoxyphenyl)pyrrolidine-3-carboxylic acid], the “change in UACR from baseline” value (DKD patients [1]; non-responders, with concomitant SGLT-2 inhibitor use) is given as “+10.4%”, the “change in UACR from baseline” value (DKD patients [1]; non-responders, without concomitant SGLT-2 inhibitor use) is given as −1.3% and the “change in UACR from baseline” value (DKD patients [1]; responders, with concomitant SGLT-2 inhibitor use) is given as −53.2%. The “change in UACR from baseline” value (DKD patients [1]; responders, without concomitant SGLT-2 inhibitor use) was −48.8%, the “Change in B-type Natriuretic Peptide (fluid retention)” value (DKD patients [2]; [4]) was 6.9% and the “Change in Systolic Blood Pressure (renal efficacy)” value (DKD patients [2]; [4]) was −9.2 mmHg. The “Change in body weight (fluid retention)” value (DKD patients [2]; [4]) was 1.1 kg, the “Change in eGFR (renal efficacy)” value (DKD patients [2]; [4]) was −0.6 ml/min/1.73 m^2 and the “Change in hematocrit (fluid retention)” value (DKD patients [2]; [4]) was −2.5%. The “Change in hemoglobin (fluid retention)” value (DKD patients [2]; [4]) was -0.9 g/dL, the “Body weight, change” value (DKD patients [2]; [5]) was 0.6 kg and the “Systolic Blood Pressure, change” value (DKD patients [2]; [5]) was −6.7 mmHg. The “eGFR, change” value (DKD patients [2]; [5]) was −2.1 ml/min/1.73 m^2, the “B-type Natriuretic Peptide, change” value (DKD patients [2]; [5]) was 5.1% and the “Body weight, change” value (DKD patients [2]; [6]) was 0.6 kg. The “Systolic Blood Pressure, change” value (DKD patients [2]; [6]) was −4.7 mmHg, the “eGFR, change” value (DKD patients [2]; [6]) was −1.0 ml/min/1.73 m^2 and the “B-type Natriuretic Peptide, change” value (DKD patients [2]; [6]) was 8.3%. For the same compound, the “body weight increased by” value (DKD patients [2]; after six weeks, matched cohort, atrasentan alone) was 0.6 kg, the “UACR Change, Mean (SD)” value (DKD patients [2]; Concomitant sGLT2 only, N 64) was −469.92 (680.739) and the “UACR Change, Median” value (DKD patients [2]; Concomitant sGLT2 only, N 64) was −311.00. For the same compound, the “UACR Final, Mean (SD)” value (DKD patients [2]; Concomitant sGLT2 only, N 64) was 809.47 (956.422), the “UACR Final, Median” value (DKD patients [2]; Concomitant sGLT2 only, N 64) was 437.50 and the “UACR Change, Mean (SD)” value (DKD patients [2]; [7]) was −365.00 (1213.365). The “UACR Change, Median” value (DKD patients [2]; [7]) was −257.00, the “UACR Final, Mean (SD)” value (DKD patients [2]; [7]) was 891.95 (1352.518) and the “UACR Final, Median” value (DKD patients [2]; [7]) was 540.16. For the same compound, the “UACR Change, Mean (SD)” value (DKD patients [2]; Prior SGLT2 only, N 6) was −97.80 (194.266), the “UACR Change, Median” value (DKD patients [2]; Prior SGLT2 only, N 6) was −101.00 and the “UACR Final, Mean (SD)” value (DKD patients [2]; Prior SGLT2 only, N 6) was 1457.19 (1448.751). For the same compound, the “UACR Final, Median” value (DKD patients [2]; Prior SGLT2 only, N 6) was 939.56, the “UACR Change, Mean (SD)” value (DKD patients [2]; [8]) was −109.71 (366.699) and the “UACR Change, Median” value (DKD patients [2]; [8]) was −261.00. The “UACR Final, Mean (SD)” value (DKD patients [2]; [8]) was 379.37 (556.751), the “UACR Final, Median” value (DKD patients [2]; [8]) was 136.00 and the “fluid retention and anemia adverse events” value (DKD patients [3]; atrasentan group compared with placebo group) was “more frequent”. The “patients who died, number” value (DKD patients [3]; [9]) was 58 patients, the “patients who died, percent” value (DKD patients [3]; [9]) was 4.4% and the “hospital admission for heart failure, number of patients” value (DKD patients [3]; [10]) was 47 patients. For the same compound, the “hospital admission for heart failure, percent of patients” value (DKD patients [3]; [10]) was 3.5%, the “patients with a primary composite renal endpoint event (doubling of serum creatinine or ESRD), number” value (DKD patients [3]; [11]) was 79 patients and the “patients with a primary composite renal endpoint event (doubling of serum creatinine or ESRD), percent” value (DKD patients [3]; [11]) was 6.0%.
